According to US20190134005A1 (BioMarin Pharmaceutical Inc., priority 2016, published 2019):
Read-outs that look alike come from different tables or passages of the source.

Target: T1, human CGT (Homo sapiens, UniProt Q16880)
T1 sequence (Q16880 21-541): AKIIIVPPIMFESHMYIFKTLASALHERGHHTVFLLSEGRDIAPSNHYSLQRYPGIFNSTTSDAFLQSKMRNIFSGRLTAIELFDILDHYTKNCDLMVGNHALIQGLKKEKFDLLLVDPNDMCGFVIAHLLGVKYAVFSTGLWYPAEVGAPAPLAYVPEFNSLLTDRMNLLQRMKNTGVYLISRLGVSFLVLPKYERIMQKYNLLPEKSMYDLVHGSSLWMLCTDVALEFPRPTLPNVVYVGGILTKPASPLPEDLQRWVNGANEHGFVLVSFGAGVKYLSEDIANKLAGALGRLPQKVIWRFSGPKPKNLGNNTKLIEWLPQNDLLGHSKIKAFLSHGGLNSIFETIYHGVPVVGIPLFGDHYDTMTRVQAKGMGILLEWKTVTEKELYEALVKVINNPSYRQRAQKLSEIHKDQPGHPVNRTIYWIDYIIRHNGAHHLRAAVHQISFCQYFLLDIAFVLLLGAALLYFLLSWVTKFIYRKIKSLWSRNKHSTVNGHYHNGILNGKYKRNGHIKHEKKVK
Test: Assay 1: CGT Enzymatic Assay (RapidFire/MS/MS, 0.01% Tween 80)
Assay type: biochemical
Conditions: Table 1, Compounds of Formula (I) and Formula (II), CGT enzymatic assay, read-out: IC50

[1] = C6-NBD-dihydro-galactosylceramide readout

IC50 [nM] | IC50 [1] [nM] | Structure (SMILES)
> 50000 |  | O=C1N(c2ccc(Br)cc2)C(=O)C(O)(c2ccc(OCC3CC3)cc2)N1c1ccc(Br)cc1 (centres unmarked) [Example 184, 1,3-bis(4-bromophenyl)-5-(4-(cyclopropylmethoxy)phenyl)-5-hydroxyimidazolidine-2,4-dione]
< 1000 |  | CC1N(c2ccccc2)C(=O)N(c2ccc(Br)cc2)C1(O)c1cccc(OC(F)(F)F)c1 (centres unmarked) [Example 229, 3-(4-bromophenyl)-4-hydroxy-5-methyl-1-phenyl-4-(3-(trifluoromethoxy)phenyl)imidazolidin-2-one]
 | < 1000 | N#Cc1cc(C#N)cc(C2(O)N(c3ccc(Cl)cc3)C(=O)N(c3ccc(Cl)cc3)C23COC3)c1 (centres unmarked) [Compound 306, 5-(5,7-bis(4-chlorophenyl)-8-hydroxy-6-oxo-2-oxa-5,7-diazaspiro[3.4]octan-8-yl)isophthalonitrile]
< 1000 |  | CCc1cccc(C2(O)[C@@H](C)N(c3ccc(Br)cc3)C(=O)N2c2ccc(Br)cc2)c1 (stereo partly drawn) [Compound 68-2, (5R)-1,3-bis(4-bromophenyl)-4-(3-ethylphenyl)-4-hydroxy-5-methylimidazolidin-2-one]
 | < 1000 | N#Cc1ccc(N2C(=O)N(c3ccccc3)C(O)(c3cccc(OC(F)(F)F)c3)C23CCC3)cc1 (centres unmarked) [Example 336, 4-(8-hydroxy-6-oxo-7-phenyl-8-(3-(trifluoromethoxy)phenyl)-5,7-diazaspiro[3.4]octan-5-yl)benzonitrile]
> 50000 |  | O=C1N(c2ccc(Br)cc2)C(=O)C(O)(c2nccs2)N1c1ccc(Br)cc1 (centres unmarked) [Example 201, 1,3-bis(4-bromophenyl)-5-hydroxy-5-(thiazol-2-yl)imidazolidine-2,4-dione]
1000 to 10000 |  | COc1cccc(C2(C)C(O)N(c3ccc(Br)cc3)C(=O)N2c2ccc(Br)cc2)c1 (centres unmarked) [Compound 126, 1,3-bis(4-bromophenyl)-5-hydroxy-4-(3-methoxyphenyl)-4-methylimidazolidin-2-one]
< 1000 |  | CC[C@@H]1N(c2ccc(Cl)cc2)C(=O)N(c2ccc(Cl)cc2)C1(O)c1cccc(C#N)c1 (single isomer, unassigned) [Compound 106-1]
< 1000 |  | CC[C@]1(C)N(c2ccc(Cl)cc2)C(=O)N(c2ccc(Cl)cc2)C1(O)c1cccc(C#N)c1 (single isomer, unassigned) [Example 185-2]
< 1000 |  | C#Cc1cccc(C2(O)[C@H](C)N(c3ccc(Cl)cc3)C(=O)N2c2ccc(Cl)cc2)c1 (stereo partly drawn) [Compound 93-1, (5S)-1,3-bis(4-chlorophenyl)-4-(3-ethynylphenyl)-4-hydroxy-5-methylimidazolidin-2-one]
1000 to 10000 |  | CC1N(c2ccc(C#N)cc2)C(=O)N(c2ccc(C#N)cc2)C1(O)c1cccc(OC(F)(F)F)c1 (centres unmarked) [Example 180, 4,4′-(4-hydroxy-5-methyl-2-oxo-4-(3-(trifluoromethoxy)phenyl)imidazolidine-1,3-diyl)dibenzonitrile]
< 1000 |  | CN(C)C[C@H]1N(c2ccc(Cl)cc2)C(=O)N(c2ccc(Cl)cc2)C1(O)c1cccc(OC(F)(F)F)c1 (single isomer, unassigned) [Example 166-2]
< 1000 |  | CCC[C@H]1N(c2ccc(Br)cc2)C(=O)N(c2ccc(Br)cc2)C1(O)c1cccc(C)c1 (stereo partly drawn) [Compound 96-2, (5R)-1,3-bis(4-bromophenyl)-4-hydroxy-5-propyl-4-(m-tolyl)imidazolidin-2-one]
< 1000 |  | CCC1N(c2ccc(Cl)cc2)C(=O)N(c2ccc(Cl)cc2)C1(O)c1cccc(OC(F)(F)F)c1 (stereo in doubt) [Compound 82-1, (5S)-1,3-bis(4-chlorophenyl)-5-ethyl-4-hydroxy-4-(3-(trifluoromethoxy)phenyl)imidazolidin-2-one]
< 1000 |  | CCC[C@@H]1N(c2ccc(Cl)cc2)C(=O)N(c2ccc(Cl)cc2)C1(O)c1cccc(Cl)c1 (stereo partly drawn) [Compound 114-1, (5S)-4-(3-chlorophenyl)-1,3-bis(4-chlorophenyl)-4-hydroxy-5-propylimidazolidin-2-one]
 | < 1000 | N#Cc1ccc(N2C(=O)N(c3ccc(Cl)cc3)C(O)(c3cccc(OC(F)(F)F)c3)C23CCC3)cc1 (centres unmarked) [Compound 269, 4-(7-(4-chlorophenyl)-8-hydroxy-6-oxo-8-(3-(trifluoromethoxy)phenyl)-5,7-diazaspiro[3.4]octan-5-yl)benzonitrile]

IC50 [nM] | IC50 [1] [nM] | Structure (SMILES)
< 1000 |  | C[C@H]1N(c2ccc(Br)cc2)C(=O)N(c2ccc(Br)cc2)C1(O)c1cccc(OC(F)(F)F)c1 (stereo partly drawn) [Compound 66-2, (5R)-1,3-bis(4-bromophenyl)-4-hydroxy-5-methyl-4-(3-(trifluoromethoxy)phenyl)imidazolidin-2-one]
< 1000 |  | CCC1N(c2ccc(Cl)cc2)C(=O)N(c2ccc(Cl)cc2)C1(O)c1cccc(C#N)c1 (centres unmarked) [Compound 106, 3-(1,3-bis(4-chlorophenyl)-5-ethyl-4-hydroxy-2-oxoimidazolidin-4-yl)benzonitrile]
 | < 1000 | N#Cc1cccc(C2(O)N(c3ccc(Cl)cc3)C(=O)N(c3ccc(Cl)cc3)C23CC(F)(F)C3)c1 (centres unmarked) [Compound 305, 3-(5,7-bis(4-chlorophenyl)-2,2-difluoro-8-hydroxy-6-oxo-5,7-diazaspiro[3.4]octan-8-yl)benzonitrile]
< 1000 |  | CCC1N(c2ccc(Br)cc2)C(=O)N(c2ccc(Br)cc2)C1(O)c1cccc(OC(F)(F)F)c1 (stereo in doubt) [Compound 83-2, (5R)-1,3-bis(4-bromophenyl)-5-ethyl-4-hydroxy-4-(3-(trifluoromethoxy)phenyl)imidazolidin-2-one]
10000 to 50000 |  | Cc1cccc([C@@]2(C)C(O)N(c3ccc(Cl)cc3)C(=O)N2c2ccc(Cl)cc2)c1 (single isomer, unassigned) [Example 222-1]
< 1000 |  | N#Cc1cccc(C2(O)[C@@H](CC3CC3)N(c3ccc(Cl)cc3)C(=O)N2c2ccc(Cl)cc2)c1 (single isomer, unassigned) [Compound 132-2]
10000 to 50000 |  | Cc1cc(C)cc(C2(O)CN(c3ccc(Br)cc3)C(=O)N2c2ccc(Br)cc2)c1 (centres unmarked) [Example 33, 1,3-bis(4-bromophenyl)-4-(3,5-dimethylphenyl)-4-hydroxyimidazolidin-2-one]
< 1000 |  | O=C1N(c2ccc(Cl)cc2)[C@@H](C2CC2)C(O)(c2cccc(OC(F)F)c2)N1c1ccc(Cl)cc1 (stereo partly drawn) [Compound 233-1, (5S)-1,3-bis(4-chlorophenyl)-5-cyclopropyl-4-(3-(difluoromethoxy)phenyl)-4-hydroxyimidazolidin-2-one]
50000 to 100000 |  | COc1ccc(C2(O)C(=O)N(c3ccc(Br)cc3)C(=O)N2c2ccc(Br)cc2)cc1 (centres unmarked) [Compound 144, 1,3-bis(4-bromophenyl)-5-hydroxy-5-(4-methoxyphenyl)imidazolidine-2,4-dione]
10000 to 50000 |  | CC(C)(C)c1cccc(C2(O)CN(c3ccc(Cl)cc3)C(=O)N2c2ccc(Cl)cc2)c1 (centres unmarked) [Compound 128, 4-(3-(tert-butyl)phenyl)-1,3-bis(4-chlorophenyl)-4-hydroxyimidazolidin-2-one]
1000 to 10000 |  | N#Cc1cc(Cl)cc(C2(O)CN(c3ccc(Cl)cc3)C(=O)N2c2ccc(Cl)cc2)c1 (centres unmarked) [Compound 95, 3-(1,3-bis(4-chlorophenyl)-4-hydroxy-2-oxoimidazolidin-4-yl)-5-chlorobenzonitrile]
 | < 1000 | Cc1ccc(N2C(=O)N(c3ccc(C#N)cc3)C(O)(c3cccc(OC(F)(F)F)c3)C23CCC3)cc1 (centres unmarked) [Compound 281, 4-(8-hydroxy-6-oxo-5-(p-tolyl)-8-(3-(trifluoromethoxy)phenyl)-5,7-diazaspiro[3.4]octan-7-yl)benzonitrile]
 | < 1000 | Cc1ccc(N2C(=O)N(c3ccc(Cl)cc3)C(O)(c3cccc(C#N)c3)C2(C)C)cc1 (centres unmarked) [Example 317, 3-(3-(4-chlorophenyl)-4-hydroxy-5,5-dimethyl-2-oxo-1-(p-tolyl)imidazolidin-4-yl)benzonitrile]
> 50000 |  | O=C1N(c2ccc(Br)cc2)C(=O)C(O)(c2ccc(OC3CCCCC3)cc2)N1c1ccc(Br)cc1 (centres unmarked) [Example 169, 1,3-bis(4-bromophenyl)-5-(4-(cyclohexyloxy)phenyl)-5-hydroxyimidazolidine-2,4-dione]
< 1000 |  | CC(C)[C@@H]1N(c2ccc(C(F)(F)F)cc2)C(=O)N(c2ccc(C(F)(F)F)cc2)C1(O)c1cccc(OC(F)(F)F)c1 (stereo partly drawn) [Example 196-1, (5S)-4-hydroxy-5-isopropyl-4-(3-(trifluoromethoxy)phenyl)-1,3-bis(4-(trifluoromethyl)phenyl)imidazolidin-2-one]
< 1000 |  | CC[C@H]1N(c2ccc(Cl)cc2)C(=O)N(c2ccc(Cl)cc2)C1(O)c1cccc(Cl)c1 (stereo partly drawn) [Compound 81-2, (5R)-4-(3-chlorophenyl)-1,3-bis(4-chlorophenyl)-5-ethyl-4-hydroxyimidazolidin-2-one]

Structure (SMILES) | IC50 [nM] | IC50 [1] [nM]
Cc1ccc(N2C(=O)N(c3ccc(C#N)cc3)C3(COC3)C2(O)c2cccc(C#N)c2)cc1 (centres unmarked) [Compound 278, 3-(5-(4-cyanophenyl)-8-hydroxy-6-oxo-7-(p-tolyl)-2-oxa-5,7-diazaspiro[3.4]octan-8-yl)benzonitrile] |  | < 1000
CC[C@H]1N(c2ccc(Br)cc2)C(=O)N(c2ccc(Br)cc2)C1(O)c1ccccc1 (some centres unmarked) [Example 25-2] | < 1000 | 
Cc1ccc(N2C(=O)N(c3ccc(C#N)cc3)C(O)(c3cccc(OC(F)(F)F)c3)C2(C)C)cc1 (centres unmarked) [Example 314, 4-(5-hydroxy-4,4-dimethyl-2-oxo-3-(p-tolyl)-5-(3-(trifluoromethoxy)phenyl)imidazolidin-1-yl)benzonitrile] |  | < 1000
